Data published in US20240415918A1, “Polypeptide and its use as a CCK receptor agonist/antagonist” (Centre for Regenerative Medicine & Health, Hong Kong …, priority 2021, published 2024).
*1 amine or outer side, *2 acyl side, *3 side chain or, on linkers, in order; H or OH if unused. Where a SMILES comes first, the peptide text is derived from it. [ ]: non-standard residue; d: D form. The star is where a group is joined. sY = N[C@@H](Cc1ccc(OS(=O)(=O)O)cc1)C(=O)O; NMeW = CN[C@@H](Cc1c[nH]c2ccccc12)C(=O)O; Phe(3-Br) = N[C@@H](Cc1cccc(Br)c1)C(=O)O; Fmoc = O=C(OCC1c2ccccc2-c2ccccc21)*; Palmitoyl = CCCCCCCCCCCCCCCC(=O)*; NMeNle = CCCC[C@H](NC)C(=O)O; Suc = O=C(CCC(=O)[*:2])[*:1]; Nle = CCCC[C@H](N)C(=O)O

What was measured:
[1] = target: T1, CCK-B receptors (CHO-CCK) (Homo sapiens, UniProt P32239); assay: Calcium flux (Fluo-8) agonist test on CHO-CCK model cells; assay type: cell-based; conditions: CHO-CCK cells
T1 construct: expressed in transfected cells; host or cells: CHO (CHO-CCK model cells)
T1 sequence (P32239 1-447): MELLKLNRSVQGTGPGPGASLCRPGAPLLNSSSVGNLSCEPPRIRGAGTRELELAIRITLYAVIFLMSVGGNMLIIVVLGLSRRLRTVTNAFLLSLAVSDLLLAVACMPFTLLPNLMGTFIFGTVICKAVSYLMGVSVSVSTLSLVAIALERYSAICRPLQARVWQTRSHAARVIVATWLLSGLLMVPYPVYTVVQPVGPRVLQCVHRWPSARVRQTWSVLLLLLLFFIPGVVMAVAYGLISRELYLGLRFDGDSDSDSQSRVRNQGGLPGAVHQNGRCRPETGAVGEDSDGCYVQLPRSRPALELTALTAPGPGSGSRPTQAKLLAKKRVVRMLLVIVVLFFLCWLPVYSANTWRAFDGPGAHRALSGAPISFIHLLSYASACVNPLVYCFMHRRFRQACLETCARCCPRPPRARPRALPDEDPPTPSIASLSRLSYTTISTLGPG
Method in brief: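 Agonist-mode Fluo-8 calcium flux read on CHO-CCK cells after dye loading 30 min at 37 °C plus 30 min at room temperature.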

[2] = target: T1, CCK-B receptors (CHO-CCK); assay: Calcium flux (Fluo-8) antagonist test on CHO-CCK model cells in presence of CCK8; assay type: cell-based
Procedure: The compound was formulated to a 10 mM mother liquor with DMSO, and then diluted into a series of 9 concentrations with a 3-fold gradient to form a 1000× stock solution. […] Prepare 1×Fluo-8 analysis buffer: mix 9 mL of HHBS, 1 mL of 10× Pluronic F127 Plus and 20 μL of Fluo-8 thoroughly for later use. • 3. Add Fluo-8 dye working solution to the cell plate, 100 μL/well. First incubate in a 37° C. incubator for 30 min, and then take it out and incubate at room temperature in the dark for 30 min. • 4. In the process of incubating cells, the compounds to be detected were prepared with HHBS. • 5. […] The agonism/antagonism EC50 of the compound can be obtained by plotting the fitting curve with the agonism/antagonism percentage as Y-axis and the concentration of the compound as X-axis.

[3] = compound alone, 100% = 20 nM CCK8
[4] = compound together with 10 nM CCK8
[5] = compound together with 10 nM CCK8, bound in μM
[6] = Fluo-8 calcium flux, bound in μM
[7] = in presence of 10 nM CCK8, bound in μM
[8] = Fluo-8 calcium flux, 100% control = 20 nM CCK8

CSCC[C@H](NC(=O)[C@@H](CC(C)C)NC(C)=O)C(=O)N[C@@H](CC(=O)O)C(=O)N[C@@H](Cc1cccc(Br)c1)C(N)=O [HT-183, Ac-D-Leu-Met-Asp-Phe(3-Br)-NH2] (Ac-[dL]MD[Phe(3-Br)]-NH2)
EC50 [1, 3]: 4.46 µM
EC50 [2, 4]: 9.41 µM

CC(=O)N[C@H](Cc1c[nH]c2ccccc12)C(=O)N[C@@H](CCC(N)=O)C(=O)N[C@@H](CC(=O)O)C(=O)N[C@@H](Cc1cccc(Br)c1)C(N)=O [HT-184, Ac-D-Trp-Glu-Asp-Phe(3-Br)-NH2]
EC50 [1, 3]: 4.32 µM
EC50 [2, 4]: 4.41 µM

CC(=O)N[C@H](Cc1c[nH]c2ccccc12)C(=O)N[C@@H](CCC(N)=O)C(=O)N[C@@H](CC(=O)O)C(=O)N[C@@H](Cc1cccc(Br)c1)C(N)=O [HT-185, Ac-D-Trp-Gln-Asp-Phe(3-Br)-NH2]
EC50 [1, 3]: 3.82 µM
EC50 [2, 4]: 12 µM

CSCC[C@H](NC(=O)[C@@H](Cc1c[nH]c2ccccc12)NC(C)=O)C(=O)N[C@@H](CCC(=O)O)C(=O)N[C@@H](Cc1cccc(Br)c1)C(N)=O [HT-186, Ac-D-Trp-Met-Glu-Phe(3-Br)-NH2] (Ac-[dW]ME[Phe(3-Br)]-NH2)
EC50 [1, 3]: 1.34 µM
EC50 [2, 4]: 7.71 µM

CSCC[C@H](NC(=O)[C@@H](Cc1c[nH]c2ccccc12)NC(C)=O)C(=O)N[C@@H](CC(N)=O)C(=O)N[C@@H](Cc1cccc(Br)c1)C(N)=O [HT-187, Ac-D-Trp-Met-Asn-Phe(3-Br)-NH2] (Ac-[dW]MN[Phe(3-Br)]-NH2)
EC50 ([1]; compound alone, bound in μM): > 10 µM
EC50 [2, 5]: > 10 µM

CSCC[C@H](NC(=O)[C@@H](Cc1c[nH]c2ccccc12)NC(C)=O)C(=O)N[C@@H](CCCCN)C(=O)N[C@@H](Cc1cccc(Br)c1)C(N)=O [HT-188, Ac-D-Trp-Met-Lys-Phe(3-Br)-NH2] (Ac-[dW]MK[Phe(3-Br)]-NH2)
EC50 [1, 3]: 1.84 µM
EC50 [2, 4]: 7.55 µM

CSCC[C@H](NC(=O)[C@@H](Cc1c[nH]c2ccccc12)NC(C)=O)C(=O)N[C@@H](Cc1c[nH]cn1)C(=O)N[C@@H](Cc1cccc(Br)c1)C(N)=O [HT-189, Ac-D-Trp-Met-His-Phe(3-Br)-NH2] (Ac-[dW]MH[Phe(3-Br)]-NH2)
EC50 [1, 3]: 1.99 µM
EC50 [2, 4]: 5.95 µM

CSCC[C@H](NC(=O)[C@@H](Cc1c[nH]c2ccccc12)NC(C)=O)C(=O)N[C@@H](CC(C)C)C(=O)N[C@@H](Cc1cccc(Br)c1)C(N)=O [HT-190, Ac-D-Trp-Met-Leu-Phe(3-Br)-NH2] (Ac-[dW]ML[Phe(3-Br)]-NH2)
EC50 [1, 3]: 4.75 µM
EC50 [2, 4]: 6.16 µM

CSCC[C@H](NC(=O)[C@H](Cc1c[nH]c2ccccc12)NC(C)=O)C(=O)N[C@@H](CC(=O)O)C(=O)N[C@@H](Cc1c[nH]cn1)C(N)=O [HT-191, Ac-Trp-Met-Asp-His-NH2] (Ac-WMDH-NH2)
EC50 ([1]; compound alone, bound in μM): > 10 µM
EC50 [2, 5]: > 10 µM

CSCC[C@H](NC(=O)[C@H](Cc1c[nH]c2ccccc12)NC(C)=O)C(=O)N[C@@H](CC(=O)O)C(=O)N[C@@H](CC(C)C)C(N)=O [HT-192, Ac-Trp-Met-Asp-Leu-NH2] (Ac-WMDL-NH2)
EC50 ([1]; compound alone, bound in μM): > 10 µM
EC50 [2, 4]: 8.76 µM

CSCC[C@H](NC(=O)[C@H](Cc1c[nH]c2ccccc12)NC(C)=O)C(=O)N[C@@H](CC(=O)O)C(=O)N[C@@H](Cc1c[nH]c2ccccc12)C(N)=O [HT-193, Ac-Trp-Met-Asp-Trp-NH2] (Ac-WMDW-NH2)
EC50 [1, 3]: 0.000814 µM
EC50 [2, 4]: 0.057 µM

CSCC[C@H](NC(=O)[C@H](Cc1c[nH]c2ccccc12)NC(C)=O)C(=O)N[C@@H](CC(=O)O)C(=O)N[C@@H](CCCCN)C(N)=O [HT-194, Ac-Trp-Met-Asp-Lys-NH2] (Ac-WMDK-NH2)
EC50 ([1]; compound alone, bound in μM): > 10 µM
EC50 [2, 4]: 2.22 µM

CSCC[C@H](NC(=O)[C@H](Cc1c[nH]c2ccccc12)NC(C)=O)C(=O)N[C@@H](CC(=O)O)C(=O)N[C@@H](CCCNC(=N)N)C(N)=O [HT-195, Ac-Trp-Met-Asp-Arg-NH2] (Ac-WMDR-NH2)
EC50 ([1]; compound alone, bound in μM): > 10 µM
EC50 [2, 4]: 2.2 µM

CSCC[C@H](NC(=O)[C@H](Cc1c[nH]c2ccccc12)NC(C)=O)C(=O)N[C@@H](CC(=O)O)C(=O)N[C@@H](CCC(=O)O)C(N)=O [HT-196, Ac-Trp-Met-Asp-Glu-NH2]
EC50 [1, 6]: > 10 µM
EC50 [2, 7]: > 10 µM

CCCC[C@H](NC(=O)[C@H](Cc1c[nH]c2ccccc12)NC(=O)OCC1c2ccccc2-c2ccccc21)C(=O)N[C@@H](CC(=O)O)C(=O)N[C@@H](Cc1cccc(Br)c1)C(N)=O [HT-198, Fmoc-Trp-Nle-Asp-Phe(3-Br)-NH2] (Fmoc-W[Nle]D[Phe(3-Br)]-NH2)
EC50 [1, 8]: 0.205 µM
EC50 ([2]; in presence of 10 nM CCK8): 0.908 µM

CCCC[C@@H](C(=O)N[C@@H](CC(=O)O)C(=O)N[C@@H](Cc1cccc(Br)c1)C(N)=O)N(C)C(=O)[C@H](Cc1c[nH]c2ccccc12)N(C)C(=O)OCC1c2ccccc2-c2ccccc21 [HT-200, Fmoc-(N-Me-Trp)-(N-Me-Nle)-Asp-Phe(3-Br)-NH2] (Fmoc-[NMeW][NMeNle]D[Phe(3-Br)]-NH2)
EC50 [1, 8]: 0.616 µM
EC50 ([2]; in presence of 10 nM CCK8): 1.77 µM

CSCC[C@H](NC(=O)[C@H](Cc1c[nH]c2ccccc12)NC(C)=O)C(=O)N[C@@H](CC(=O)O)C(=O)N[C@@H](Cc1cccc(Br)c1)C(=O)N[C@@H](C)C(N)=O [HT-201, Ac-D-Trp-Met-Asp-Phe(3-Br)-Ala-NH2]
EC50 [1, 8]: 4.29 µM
EC50 ([2]; in presence of 10 nM CCK8): 3.6 µM

CCCC[C@H](NC(=O)[C@@H](Cc1c[nH]c2ccccc12)NC(=O)CNC(=O)CCC(=O)O)C(=O)N[C@@H](CC(=O)O)C(=O)N[C@@H](Cc1cccc(Br)c1)C(N)=O [HT-202, (Suc)-Gly-D-Trp-Nle-Asp-Phe(3-Br)-NH2] (Suc-G[dW][Nle]D[Phe(3-Br)]-NH2)
EC50 [1, 8]: 0.0051 µM
EC50 ([2]; in presence of 10 nM CCK8): 0.192 µM

CCCCCCCCCCCCCCCC(=O)NCC(=O)N[C@H](Cc1c[nH]c2ccccc12)C(=O)N[C@@H](CCCC)C(=O)N[C@@H](CC(=O)O)C(=O)N[C@@H](Cc1cccc(Br)c1)C(N)=O [HT-203, (Pal)-Gly-D-Trp-Nle-Asp-Phe(3-Br)-NH2] (Palmitoyl-G[dW][Nle]D[Phe(3-Br)]-NH2)
EC50 [1, 8]: 0.036 µM
EC50 ([2]; in presence of 10 nM CCK8): 1.59 µM

CSCC[C@H](NC(=O)[C@H](Cc1ccc(O)cc1)NC(=O)[C@H](CC(=O)O)NC(C)=O)C(=O)NCC(N)=O [HT-206, Ac-Asp-Tyr-Met-Gly-NH2] (Ac-DYMG-NH2)
EC50 [1, 6]: > 10 µM
EC50 [2, 7]: > 10 µM

CSCC[C@H](NC(=O)[C@H](Cc1ccc(O)cc1)NC(C)=O)C(=O)NCC(=O)N[C@@H](Cc1c[nH]c2ccccc12)C(N)=O [HT-207, Ac-Tyr-Met-Gly-Trp-NH2] (Ac-YMGW-NH2)
EC50 [1, 6]: > 10 µM
EC50 [2, 7]: > 10 µM

CSCC[C@H](NC(=O)[C@H](Cc1ccc(OS(=O)(=O)O)cc1)NC(=O)[C@H](CC(=O)O)NC(C)=O)C(=O)NCC(N)=O [HT-208, Ac-Asp-Tyr(SO3H)-Met-Gly-NH2] (Ac-D[sY]MG-NH2)
EC50 [1, 6]: > 10 µM
EC50 [2, 7]: > 10 µM

CSCC[C@H](NC(=O)[C@H](Cc1ccc(OS(=O)(=O)O)cc1)NC(C)=O)C(=O)NCC(=O)N[C@@H](Cc1c[nH]c2ccccc12)C(N)=O [HT-209, Ac-Tyr(SO3H)-Met-Gly-Trp-NH2] (Ac-[sY]MGW-NH2)
EC50 [1, 6]: > 10 µM
EC50 ([2]; in presence of 10 nM CCK8): 2.15 µM

CSCC[C@H](NC(=O)[C@H](Cc1c[nH]c2ccccc12)NC(=O)CNC(=O)[C@H](CCSC)NC(C)=O)C(N)=O [HT-210, Ac-Met-Gly-Trp-Met-NH2] (Ac-MGWM-NH2)
EC50 [1, 8]: 0.398 µM
EC50 ([2]; in presence of 10 nM CCK8): 6.45 µM

CSCC[C@H](NC(=O)[C@H](Cc1c[nH]c2ccccc12)NC(=O)CNC(C)=O)C(=O)N[C@@H](CC(=O)O)C(N)=O [HT-211, Ac-Gly-Trp-Met-Asp-NH2] (Ac-GWMD-NH2)
EC50 [1, 6]: > 10 µM
EC50 [2, 7]: > 10 µM

CCCC[C@H](NC(C)=O)C(=O)NCC(=O)N[C@@H](Cc1c[nH]c2ccccc12)C(=O)N[C@@H](CCSC)C(N)=O [HT-212, Ac-Nle-Gly-Trp-Met-NH2] (Ac-[Nle]GWM-NH2)
EC50 [1, 6]: > 10 µM
EC50 [2, 7]: > 10 µM

CCCC[C@H](NC(=O)[C@H](Cc1c[nH]c2ccccc12)NC(=O)CNC(=O)[C@H](CCCC)NC(C)=O)C(N)=O [HT-213, Ac-Nle-Gly-Trp-Nle-NH2] (Ac-[Nle]GW[Nle]-NH2)
EC50 [1, 8]: 0.533 µM
EC50 ([2]; in presence of 10 nM CCK8): 4.92 µM
